“Also recorded” adds a separate entry of the source.
Columns and labels:
Type in all cases: cell-based
PDGFRA [1] = experiment: PDGFRA expression in human islets exposed to 5-aza-C
Source text: (§1) The CpG tool of the UCSC genome browser (v257) identifies two CpG islands upstream of the translational start site of the mouse Pdgfra gene, spanning the regions −9040/−9610 and −5662/−5054 (FIG. 20). The more 3′ promoter-proximal CpG island at −5662/−5054 aligns well with regions associated with histone H3K4me1 and H3K4me3, marks of enhancers or cis-regulatory elements, with lesser overlap in the more 5′ CpG island at −9040/−9610. There are also two CpG islands within the −3,600 to +118 region of the human PDGFRA promoter-proximal region, and evidence exists that DNA methylation within the most 3′ CpG island regulates PDGFRA expression (Toepoel et al 2008). […] These findings indicate that DNA methylation and associated chromatin remodeling regulates expression of islet β-cell PDGFRA.

PDGFRA [2] = experiment: PDGFRA expression in mouse islets exposed to 5-aza-C
Source text: as §1

Ezh2 [3] = experiment: Ezh2/Ezh1 expression in cultured mouse islets (real-time RT-PCR, western blot); details: 2 days; for effect of inhibitor on PDGF-AA-induced Ezh2 expression: 3 week-old mouse islets, PDGF-AA plus inhibitor; for Ezh2 mRNA levels after mitogen exposure: juvenile mouse islets exposed to insulin or prolactin
Procedure: Mouse pancreatic islets were purified as described in Chen et al. (2009) Genes Dev. 23, 975-985 and used immediately for assays described in the text. To study Ezh2 induction in cultured islets exposed to mitogens, freshly isolated islets from 2-3-week old, and 7-12-month old C57BL/6 mice were recovered and equilibrated overnight at 37° C., 5% CO2 in RPMI-1640 medium supplemented with 0.5% fetal bovine serum (FBS), 0.2% bovine albumin (BSA) and 2% penicillin/streptomycin. Afterwards, islets were distributed into microplates or dishes, and treated with recombinant human PDGF-AA, prolactin or insulin (Sigma), with or without addition of pharmacological inhibitors, including Sunitinib (Selleck), […]0126 (Sigma), LY294002 (Sigma) or U-73122 (Sigma) at the indicated concentrations. Two days later, islets were harvested for RNA or protein extraction for real-time RTPCR or western blot analyses. To detect phosphorylation of Pdgfr-α by western blot, islets were exposed to PDGF-AA (with or without indicated pharmacological inhibitors) for 90 min before islet harvesting and protein extraction. To detect in vitro islet β-cell proliferation stimulated by PDGF-AA, a final concentration of 50 μM BrdU was introduced into each culture dish 24 h before harvest, followed by standard histological processing. Immunostaining of BrdU and insulin was performed on processed islets, and β-cell proliferation rate was determined by quantifying percentage of insulin+ cells with BrdU+. Culture experiments of human islets were performed using a similar procedure described later. Total RNA from freshly isolated or cultured islets after indicated treatments were purified using the Absolutely RNA miniprep purification kit (Stratagene) according to the manufacturer's instructions. RNA concentration was measured with a RiboGreen RNA quantification assay (Invitrogen). One-step quantitative RT-PCR was performed and analysed using an ABI Prism 7300 detection system (Applied Biosystems) with TaqMan one-step RTPCR Master Mix Reagents and appropriate amounts (10-100 ng) of islet total RNA as the template. We calculated the ratio of mRNA for the gene of interest to the amount of internal control mRNA of peptidylprolyl isomerase A (cyclophilin A, PPIA), and then normalized the ratio for each gene to its median. For western blots, total islet protein was prepared from freshly isolated or cultured islets after indicated treatments as described in Chen et al. (2009) Genes Dev. 23, 975-985. Equal amounts of protein were resolved on SDS-PAGE and transferred to polyvinylidine fluoride membranes (Amersham Pharmacia) for immunoblotting with specific antibodies, including rabbit polyclonal anti-human Ezh2 (1:1,000, Millipore), rabbit polyclonal anti-phospho-PDGFR-α ([…]) (1:1,000, Santa Cruz Biotechnologies), rabbit monoclonal anti-PDGFR-α (1:1,000, Cell Signaling), mouse monoclonal anti-β-actin (1:4,000, Sigma), rabbit monoclonal anti-Akt (1:1,500, Cell Signaling), rabbit monoclonal anti-phospho-Ark ([…]) (1:1,000, Cell Signaling), rabbit monoclonal anti-p44/42 MAPK (Erk1/2) (1:1,500, Cell Signaling), rabbit monoclonal anti-phospho-p44/42 MAPK (Erk1/2) […]) (1:1,000, Cell Signaling), rabbit monoclonal anti-PLCγ1 (1:1,000, Cell Signaling) and rabbit monoclonal anti-phospho-PLCγ1 ([…]) (1:1,000, Cell Signaling). Signal was visualized using ECL detection (Amersham Pharmacia) on Kodak film after further incubation with HRP-conjugated secondary antibodies. For phospho-PDGFR-α ([…]) and PDGFR-α detection, signal was amplified by incubating the membrane with biotinylated anti-rabbit-IgG (1:2,000), followed with an incubation with HRP-avidin (1:2,000, Vector Laboratories) and then ECL visualization.

mouse islet β-cells = experiment: In vitro mouse islet β-cell proliferation (BrdU incorporation); details: 3 week-old mouse islets, PDGF-AA 50 ng/ml plus inhibitor (Sunitinib 2 μM, Vargatef 5 μM), 2 days
Procedure: Mouse pancreatic islets were purified as described in Chen et al. (2009) Genes Dev. 23, 975-985 and used immediately for assays described in the text. To study Ezh2 induction in cultured islets exposed to mitogens, freshly isolated islets from 2-3-week old, and 7-12-month old C57BL/6 mice were recovered and equilibrated overnight at 37° C., 5% CO2 in RPMI-1640 medium supplemented with 0.5% fetal bovine serum (FBS), 0.2% bovine albumin (BSA) and 2% penicillin/streptomycin. Afterwards, islets were distributed into microplates or dishes, and treated with recombinant human PDGF-AA, prolactin or insulin (Sigma), with or without addition of pharmacological inhibitors, including Sunitinib (Selleck), […]0126 (Sigma), LY294002 (Sigma) or U-73122 (Sigma) at the indicated concentrations. Two days later, islets were harvested for RNA or protein extraction for real-time RTPCR or western blot analyses. To detect phosphorylation of Pdgfr-α by western blot, islets were exposed to PDGF-AA (with or without indicated pharmacological inhibitors) for 90 min before islet harvesting and protein extraction. To detect in vitro islet β-cell proliferation stimulated by PDGF-AA, a final concentration of 50 μM BrdU was introduced into each culture dish 24 h before harvest, followed by standard histological processing. Immunostaining of BrdU and insulin was performed on processed islets, and β-cell proliferation rate was determined by quantifying percentage of insulin+ cells with BrdU+. […] For measuring pancreatic β-cell mass or BrdU by morphometry, three to six mice for each group were analysed. At least five sections separated by more than 300 μm (pancreases) or 50 μm (cultured islets) were immunostained and assessed for each sample. Images were analysed with an ImagePro program by observers blinded to genotype, and pancreatic β-cell mass and percentage of BrdU+β-cells were calculated as described in Chen et al. Polycomb protein Ezh2 regulates pancreatic 6-cell Ink4a/Arf expression and regeneration in diabetes mellitus. […]

EZH2 [4] = experiment: EZH2/EZH1 mRNA in cultured human islets (real-time RT-PCR); details: juvenile human islets, PDGF-AA 50 ng/ml with Sunitinib 2 μM or U0126 10 μM, 2 days
Procedure: Total RNA from freshly isolated or cultured islets after indicated treatments were purified using the Absolutely RNA miniprep purification kit (Stratagene) according to the manufacturer's instructions. RNA concentration was measured with a RiboGreen RNA quantification assay (Invitrogen). One-step quantitative RT-PCR was performed and analysed using an ABI Prism 7300 detection system (Applied Biosystems) with TaqMan one-step RTPCR Master Mix Reagents and appropriate amounts (10-100 ng) of islet total RNA as the template. We calculated the ratio of mRNA for the gene of interest to the amount of internal control mRNA of peptidylprolyl isomerase A (cyclophilin A, PPIA), and then normalized the ratio for each gene to its median. For islet studies, human islets were isolated either at Pittsburgh University Medical Center or the University of Alabama, Birmingham. Eight independent human islet preparations from juvenile donors at the age of 8 months, 1.0, 1.5, 2, 3, 4, 5 and 6 years, and three adult islet preparations from donors at the age of 39, 48 and 56 years were used in this study. After isolation, fresh islets were hand-picked and transferred to RPMI-1640 medium supplemented with 0.5% FBS, 0.2% BSA and 2% penicillin/streptomycin for an overnight recovery before experiments. […] To detect in vitro human islet β-cell proliferation stimulated by PDGF-AA, human islets were exposed to 50 μM BrdU for 24 h. Afterwards, human islets were processed in a similar way as in mouse islet studies for immunostaining of insulin, glucagon, PDX1 and BrdU. β-Cell proliferation rate was determined by quantifying percentage of insulin+ cells with BrdU+. More than 50 islets per group were counted for determining cultured human islet β-cell proliferation rate.

human islet β-cells = experiment: In vitro human islet β-cell proliferation (BrdU incorporation); details: juvenile human islets, PDGF-AA 50 ng/ml with Sunitinib 2 μM or U0126 10 μM
Source text: For islet studies, human islets were isolated either at Pittsburgh University Medical Center or the University of Alabama, Birmingham. Eight independent human islet preparations from juvenile donors at the age of 8 months, 1.0, 1.5, 2, 3, 4, 5 and 6 years, and three adult islet preparations from donors at the age of 39, 48 and 56 years were used in this study. After isolation, fresh islets were hand-picked and transferred to RPMI-1640 medium supplemented with 0.5% FBS, 0.2% BSA and 2% penicillin/streptomycin for an overnight recovery before experiments. […] To detect in vitro human islet β-cell proliferation stimulated by PDGF-AA, human islets were exposed to 50 μM BrdU for 24 h. Afterwards, human islets were processed in a similar way as in mouse islet studies for immunostaining of insulin, glucagon, PDX1 and BrdU. β-Cell proliferation rate was determined by quantifying percentage of insulin+ cells with BrdU+. More than 50 islets per group were counted for determining cultured human islet β-cell proliferation rate.

With `Nc1ncn([C@@H]2O[C@H](CO)[C@@H](O)[C@H]2O)c(=O)n1` [5-aza-C, 5-aza-cytidine] the “derepression of PDGFRA” value (PDGFRA [1]) was “dosage-dependent derepression; also recorded: dosage-dependent de-repression” and the “derepression of PDGFRA” value (PDGFRA [2]) was “dosage-dependent derepression; also recorded: dosage-dependent de-repression”.

For `N#CC(=C(/N)Sc1ccccc1N)/C(C#N)=C(\N)Sc1ccccc1N` [U0126, reference compound], the “effect of inhibitor on PDGF-AA-induced Ezh2 expression” value (Ezh2 [3]) was “blocked; also recorded: attenuates”, the “effect of inhibitor on PDGF-AA-increased β-cell BrdU incorporation” value (mouse islet β-cells) was “blocked; also recorded: attenuates” and the “effect of inhibitor on PDGF-AA-increased EZH2 mRNA” value (EZH2 [4]) was “blocked”. The “effect of inhibitor on PDGF-AA-increased β-cell BrdU incorporation” value (human islet β-cells) was “eliminated”.

`COC(=O)c1ccc2c(c1)NC(=O)/C2=C(\Nc1ccc(N(C)C(=O)CN2CCN(C)CC2)cc1)c1ccccc1` [Vargatef, reference compound] was tested, and the “effect of inhibitor on PDGF-AA-induced Ezh2 expression” value (Ezh2 [3]) was “eliminated” and the “effect of inhibitor on PDGF-AA-increased β-cell BrdU incorporation” value (mouse islet β-cells) was “eliminated”.

For insulin, the “Ezh2 mRNA levels after mitogen exposure” value (Ezh2 [3]) was “did not detectably alter” and the “Ezh2 mRNA levels after mitogen exposure” value (Ezh2 [3]; listed as Insulin) was “did not induce”.
